{"source": "patent US20020035264A1", "about": "“Ophthalmic formulation of a selective cyclooxygenase-2 inhibitory drug” (priority 2000, published 2002)", "assay": "Ocular versus oral delivery of valdecoxib nanoparticle suspensions; drug concentration in eye tissues and plasma by LC-MS", "type": "in vivo, New Zealand white rabbits", "conditions": "rabbit", "protocol": "Oral and ophthalmic suspensions of valdecoxib nanoparticles were prepared. […] The two carrageenan excipients are both ι-carrageenans with slightly different chemical and physical properties.\nEighteen male New Zealand white rabbits weighing from 1.8-2.5 kg were provided as test animals and divided into three lots containing six rabbits each.\nSelected eye tissues, aqueous humor, bulbar conjunctiva, cornea, eyelids, vitreous humor and sclera, were excised at the time of sacrifice, weighed directly into tared vials, solubilized and/or diluted as necessary, and analyzed by HPLC-MS. Just prior to sacrifice, 0.5 mL of a blood sample was collected from the ear central artery via a syringe, placed into a K2-EDTA vacutainer, mixed gently and stored on ice up to one hour prior to centrifuging to separate the plasma. The plasma was stored at −10° C. or colder until analysis.", "key": {"[1]": {"conditions": "four hours after administration, FIGS. 2 and 3"}}, "note": "“Also recorded” adds a separate entry of the source."}
{"smiles": "Cc1onc(-c2ccccc2)c1-c1ccc(S(N)(=O)=O)cc1", "note": "[valdecoxib, 4-[5-methyl-3-phenylisoxazol-4-yl]-benzenesulfonamide]", "values": [{"measurement": "delivery of the drug to the eye (conjunctiva, cornea, aqueous humor concentration), ocular versus oral administration", "setting": "[1]", "result": "much more effective in delivering the drug to the eye than oral administration"}, {"measurement": "systemic (plasma) concentration of the drug, ocular versus oral administration", "setting": "[1]", "result": "avoids the high systemic (plasma) concentration"}, {"measurement": "concentration of the drug in the conjunctiva versus time, ocular versus oral delivery", "setting": "single ocular dose 25 μL ophthalmic suspension per eye (about 0.1 mg) vs oral 0.5 mg/kg, 0.5, 2 and 4 hours, FIG. 1, 0.5 mg/kg", "result": "much higher initial concentration; also recorded: maintained this higher concentration over time"}]}
